The values below are quoted from earlier work in article PMC3350394, “Kinetic analysis and test-retest variability of the radioligand [^11C](R)-PK11195 binding to TSPO in the human brain - a PET study in control subjects” (EJNMMI Research, 2012).

In one series the target is dopamine D2/3 receptor. Set-up: method as in PMID 2528555, PMID 8122313. The note with it: approximately; read-out: affinity; cited from earlier work.
The conditions of series [1]: same experimental setting and analytical approach; cited from earlier work.
On the set-up of series [2]: method as in PMID 2528555. The following applies: cited from earlier work.
On the set-up of series [3]: method as in PMID 2528555. The following applies: cited from earlier work. The source holds these as a separate data set.
Series [4] has as its system TSPO. Further details: method as in PMID 19948230. The following applies: up; cited from earlier work.
Series [5] relates to TSPO. Set-up: method as in PMID 15103694. The following applies: unlabelled displacer; cited from earlier work.
Series [6] deals with alfa1-acid glycoprotein (AGP). Set-up: method as in PMID 12623120. The following applies: cited from earlier work.
Series [7] deals with human serum albumin (HSA). Set-up: method as in PMID 12623120. The following applies: relative to AGP; cited from earlier work.

As for `CCN1CCC[C@H]1CNC(=O)c1c(O)c(Cl)cc(Cl)c1OC` (racemic) [[^11C]raclopride], the Kd at dopamine D2/3 receptor was 1 to 3 nM.
Turning to `CCN1CCC[C@H]1CNC(=O)c1c(O)c(Cl)cc(Cl)c1O[11CH3]` (racemic) [[^11C]raclopride], in series [1], the K1 was 0.16. Also, the plasma protein binding in series [2] is on record as 96%. The first pass extraction result in series [3] is “about 20%”.
As for `COc1ccccc1CN(C(C)=O)c1cnccc1Oc1ccccc1` [PBR28], the “displacement of [11C](R)-PK11195 binding” value in the series with TSPO [4] is 40% to 60.
`CCC(C)N(C)C(=O)c1cc2ccccc2c(-c2ccccc2Cl)n1` (stereo not drawn) [PK11195, 1-(2-chlorophenyl)-N-methyl-N-(1-methylpropyl)-3-isoquinoline carboxamide]: in the series with TSPO [5], the “displacement of the total [11C]DAA1106 binding” value was “about 70%”.
Consider `CCC(C)N(C)C(=O)c1cc2ccccc2c(-c2ccccc2Cl)n1` (stereo not drawn) [[^3 H]PK11195, 1-(2-chlorophenyl)-N-methyl-N-(1-methylpropyl)-3-isoquinoline carboxamide], for which the “binding to AGP” value in series [6] is “high affinity”. The “binding to HSA” value in series [7] is listed as “to a lesser extent”.
Consider `CCN1CCC[C@H]1CNC(=O)c1cc(Br)cc(OC)c1O[11CH3]` [[^11C]FLB-457], for which the K1 in series [1] is recorded as 0.42.
